Source: patent publication US20260159536A1, “AKR1C3-ACTIVATED DNA ALKYLATING AGENT, AND MEDICAL APPLICATION THEREOF” (ASCENTAWITS PHARMACEUTICALS, LTD., priority 2021, published 2026)
Like-named read-outs stand apart in the source and are kept apart here.

How the values were obtained:
SNU886 = assay: Cytotoxicity on hepatocellular carcinoma cell line SNU886; format: cell-based; details: for IC50: SNU-886
Method: (§1) If not otherwise specified, IC50 values were measured by the following experimental methods:
(§2) a) Cells were plated for 24 hours, and then the compounds acted singly. 99 μL of growth medium was supplemented per well, and then 1 μL of 200× compound was added, gently shaken to ensure uniform mixing, and then placed in a 37° C., 5% CO2 incubator.
(§3) b) The cell plate was placed in the incubator for 72 hours.
(§4) b) 100 μL of CTG reagent (CelltiterGlo kit) was added to each well, the plate was placed in a rapid oscillator and shaken for 2 minutes, and then placed at room temperature for 30 minutes away from light.
(§5) The IC50 was calculated using GraphPad Prism 8 software and the IC50 (half inhibitory concentration) of the compounds was obtained using the following non-linear fitting formula: […]
(§6) Using the same experimental methods as described above, Compounds A, B and C were further tested for cytotoxicity against different hepatocellular carcinoma (HCC) cell lines SNU354, SNU886, MHCC97H and huH-1, and the results were shown in Table 2 below: […]

SNU354 = assay: Cytotoxicity on hepatocellular carcinoma cell line SNU354; format: cell-based; details: for IC50: Homo sapiens, SNU-354
Method: as §1, §2, §3, §4, §5, §6

H460 cancer cells = assay: H460 proliferation in the presence or absence of AKR1C3 inhibitor AST-3021 (Alamar Blue); format: cell-based, human; details: for IC50: Homo sapiens, NCI-H460, H460, 2 hours exposure; for Fold: IC50 with AST-3021 over IC50 without
Method: The tested compound was then added. The compound was dissolved in 100% DMSO at 200 times of the desired final test concentration. When the medicament was added, the compound was further diluted to 4 times of the desired final test concentration by using the complete medium. 50 μL of aliquots of the compound with specific concentration were added to the microwells containing 150 μL of medium, and then the final medicament concentration was obtained. […] The medicament was then washed. […] After the incubation was finished, the Alamar Blue was used to analyze and quantify the living cells.

H460 cells = assay: Inhibition of H460 cancer cell proliferation (CTG, 72 h); format: cell-based; details: Homo sapiens, NCI-H460
Method: as §1
c) The cell suspension was added to 96-well plate with 100 μL per well and 2000 cells/well of cell density.
as §2, §3, §4
c) The chemiluminescence signal value was read with Envision instrument.
as §5

MHCC97H = assay: Cytotoxicity on hepatocellular carcinoma cell line MHCC97H; format: cell-based; details: for IC50: Homo sapiens
Method: as §1, §2, §3, §4, §5, §6

huH-1 = assay: Cytotoxicity on hepatocellular carcinoma cell line huH-1; format: cell-based; details: for IC50: Homo sapiens, HuH-1
Method: as §1, §2, §3, §4, §5, §6

[1] = no AKR1C3 inhibitor, read-out: IC50 Without the addition of AST-3021

Compound | IC50 (SNU886) [µM] | IC50 (SNU354) [µM] | IC50 (H460 cancer cells; [1]) [µM] | Fold (H460 cancer cells) | IC50 (H460 cells) [µM] | IC50 (MHCC97H) [µM] | IC50 (huH-1) [µM] | ratio C/B (SNU886; IC50 ratio) | ratio C/B (SNU354; IC50 ratio) | IC50 (H460 cancer cells; AST-3021 3 micromolar, read-out: IC50 With the addition of AST-3021) [µM] | ratio C/B (MHCC97H; IC50 ratio) | ratio C/B (huH-1; IC50 ratio, huH-1)
O=[N+]([O-])c1ccc([C@H](OP(=O)(N2CC2)N2CC2)C(F)(F)F)cc1Oc1ccc(-c2ccc(F)cc2)c(F)c1 [B] | 0.378 | 0.754 | 0.00373 | 513.28 | 0.00877 | 0.242 | 0.258 |  |  |  |  | 
O=[N+]([O-])c1ccc([C@@H](OP(=O)(N2CC2)N2CC2)C(F)(F)F)cc1Oc1ccc(-c2ccc(F)cc2)c(F)c1 [C] | 0.843 | 1.52 | 0.00766 | 434.76 | 0.0234 | 0.563 | 0.269 | 2.23 | 2.01 | 3.33 | 2.32 | 1.49
